From PubChem BioAssay AID1259407 (Chemical Carcinogenesis Research Information System (CCRIS), 2018)
Active and inactive are the calls of the source. No rule for the calls is given here.

Test system: CCRIS mutagenicity, Ames/micronucleus/aberration tests
Test: CCRIS mutagenicity studies

Measured: mutagenic call

CC1(C)COC1=O
active: Test System: AMES SALMONELLA TYPHIMURIUM, Strain/Indicator: TA100, Metabolic Activation: HAMSTER, LIVER, S-9, AROCLOR 1254, Method: STANDARD PLATE active; positive | Test System: AMES SALMONELLA TYPHIMURIUM, Strain/Indicator: TA100, Metabolic Activation: HAMSTER, LIVER, S-9, Method: STANDARD PLATE active; positive | Test System: AMES SALMONELLA TYPHIMURIUM, Strain/Indicator: TA100, Metabolic Activation: MOUSE, LIVER, S-9, AROCLOR 1254, Method: STANDARD PLATE active; positive | Test System: AMES SALMONELLA TYPHIMURIUM, Strain/Indicator: TA100, Metabolic Activation: MOUSE, LIVER, S-9, Method: STANDARD PLATE active; positive | Test System: AMES SALMONELLA TYPHIMURIUM, Strain/Indicator: TA100, Metabolic Activation: NONE, Method: STANDARD PLATE active; positive | Test System: AMES SALMONELLA TYPHIMURIUM, Strain/Indicator: TA100, Metabolic Activation: RAT, LIVER, S-9, AROCLOR 1254, Method: STANDARD PLATE active; positive | Test System: AMES SALMONELLA TYPHIMURIUM, Strain/Indicator: TA100, Metabolic Activation: RAT, LIVER, S-9, Method: STANDARD PLATE active; positive | Test System: E. COLI, Strain/Indicator: WP2 UVRA, Metabolic Activation: HAMSTER, LIVER, S-9, AROCLOR 1254, Method: PREINCUBATION active; positive | Test System: E. COLI, Strain/Indicator: WP2 UVRA, Metabolic Activation: HAMSTER, LIVER, S-9, Method: PREINCUBATION active; positive | Test System: E. COLI, Strain/Indicator: WP2 UVRA, Metabolic Activation: MOUSE, LIVER, S-9, AROCLOR 1254, Method: PREINCUBATION active; positive | Test System: E. COLI, Strain/Indicator: WP2 UVRA, Metabolic Activation: NONE, Method: PREINCUBATION active; positive | Test System: E. COLI, Strain/Indicator: WP2 UVRA, Metabolic Activation: RAT, LIVER, S-9, AROCLOR 1254, Method: PREINCUBATION active; positive | Test System: E. COLI, Strain/Indicator: WP2 UVRA, Metabolic Activation: RAT, LIVER, S-9, Method: PREINCUBATION active; positive
inactive: Test System: AMES SALMONELLA TYPHIMURIUM, Strain/Indicator: TA98, Metabolic Activation: HAMSTER, LIVER, S-9, AROCLOR 1254, Method: PREINCUBATION inactive; negative | Test System: AMES SALMONELLA TYPHIMURIUM, Strain/Indicator: TA98, Metabolic Activation: HAMSTER, LIVER, S-9, AROCLOR 1254, Method: STANDARD PLATE inactive; negative | Test System: AMES SALMONELLA TYPHIMURIUM, Strain/Indicator: TA98, Metabolic Activation: HAMSTER, LIVER, S-9, Method: PREINCUBATION inactive; negative | Test System: AMES SALMONELLA TYPHIMURIUM, Strain/Indicator: TA98, Metabolic Activation: HAMSTER, LIVER, S-9, Method: STANDARD PLATE inactive; negative | Test System: AMES SALMONELLA TYPHIMURIUM, Strain/Indicator: TA98, Metabolic Activation: MOUSE, LIVER, S-9, AROCLOR 1254, Method: PREINCUBATION inactive; negative | Test System: AMES SALMONELLA TYPHIMURIUM, Strain/Indicator: TA98, Metabolic Activation: MOUSE, LIVER, S-9, AROCLOR 1254, Method: STANDARD PLATE inactive; negative | Test System: AMES SALMONELLA TYPHIMURIUM, Strain/Indicator: TA98, Metabolic Activation: MOUSE, LIVER, S-9, Method: PREINCUBATION inactive; negative | Test System: AMES SALMONELLA TYPHIMURIUM, Strain/Indicator: TA98, Metabolic Activation: MOUSE, LIVER, S-9, Method: STANDARD PLATE inactive; negative | Test System: AMES SALMONELLA TYPHIMURIUM, Strain/Indicator: TA98, Metabolic Activation: NONE, Method: PREINCUBATION inactive; negative | Test System: AMES SALMONELLA TYPHIMURIUM, Strain/Indicator: TA98, Metabolic Activation: NONE, Method: STANDARD PLATE inactive; negative | Test System: AMES SALMONELLA TYPHIMURIUM, Strain/Indicator: TA98, Metabolic Activation: RAT, LIVER, S-9, AROCLOR 1254, Method: PREINCUBATION inactive; negative | Test System: AMES SALMONELLA TYPHIMURIUM, Strain/Indicator: TA98, Metabolic Activation: RAT, LIVER, S-9, AROCLOR 1254, Method: STANDARD PLATE inactive; negative | Test System: AMES SALMONELLA TYPHIMURIUM, Strain/Indicator: TA98, Metabolic Activation: RAT, LIVER, S-9, Method: PREINCUBATION inactive; negative | Test System: AMES SALMONELLA TYPHIMURIUM, Strain/Indicator: TA98, Metabolic Activation: RAT, LIVER, S-9, Method: STANDARD PLATE inactive; negative | Test System: AMES SALMONELLA TYPHIMURIUM, Strain/Indicator: TA1535, Metabolic Activation: HAMSTER, LIVER, S-9, AROCLOR 1254, Method: PREINCUBATION inactive; negative | Test System: AMES SALMONELLA TYPHIMURIUM, Strain/Indicator: TA1535, Metabolic Activation: HAMSTER, LIVER, S-9, Method: PREINCUBATION inactive; negative | Test System: AMES SALMONELLA TYPHIMURIUM, Strain/Indicator: TA1535, Metabolic Activation: MOUSE, LIVER, S-9, AROCLOR 1254, Method: PREINCUBATION inactive; negative | Test System: AMES SALMONELLA TYPHIMURIUM, Strain/Indicator: TA1535, Metabolic Activation: MOUSE, LIVER, S-9, Method: PREINCUBATION inactive; negative | Test System: AMES SALMONELLA TYPHIMURIUM, Strain/Indicator: TA1535, Metabolic Activation: NONE, Method: PREINCUBATION inactive; negative | Test System: AMES SALMONELLA TYPHIMURIUM, Strain/Indicator: TA1535, Metabolic Activation: RAT, LIVER, S-9, AROCLOR 1254, Method: PREINCUBATION inactive; negative | Test System: AMES SALMONELLA TYPHIMURIUM, Strain/Indicator: TA1535, Metabolic Activation: RAT, LIVER, S-9, Method: PREINCUBATION inactive; negative | Test System: AMES SALMONELLA TYPHIMURIUM, Strain/Indicator: TA1537, Metabolic Activation: HAMSTER, LIVER, S-9, AROCLOR 1254, Method: PREINCUBATION inactive; negative | Test System: AMES SALMONELLA TYPHIMURIUM, Strain/Indicator: TA1537, Metabolic Activation: HAMSTER, LIVER, S-9, AROCLOR 1254, Method: STANDARD PLATE inactive; negative | Test System: AMES SALMONELLA TYPHIMURIUM, Strain/Indicator: TA1537, Metabolic Activation: HAMSTER, LIVER, S-9, Method: PREINCUBATION inactive; negative | Test System: AMES SALMONELLA TYPHIMURIUM, Strain/Indicator: TA1537, Metabolic Activation: HAMSTER, LIVER, S-9, Method: STANDARD PLATE inactive; negative | Test System: AMES SALMONELLA TYPHIMURIUM, Strain/Indicator: TA1537, Metabolic Activation: MOUSE, LIVER, S-9, AROCLOR 1254, Method: PREINCUBATION inactive; negative | Test System: AMES SALMONELLA TYPHIMURIUM, Strain/Indicator: TA1537, Metabolic Activation: MOUSE, LIVER, S-9, AROCLOR 1254, Method: STANDARD PLATE inactive; negative | Test System: AMES SALMONELLA TYPHIMURIUM, Strain/Indicator: TA1537, Metabolic Activation: MOUSE, LIVER, S-9, Method: PREINCUBATION inactive; negative | Test System: AMES SALMONELLA TYPHIMURIUM, Strain/Indicator: TA1537, Metabolic Activation: MOUSE, LIVER, S-9, Method: STANDARD PLATE inactive; negative | Test System: AMES SALMONELLA TYPHIMURIUM, Strain/Indicator: TA1537, Metabolic Activation: NONE, Method: PREINCUBATION inactive; negative | Test System: AMES SALMONELLA TYPHIMURIUM, Strain/Indicator: TA1537, Metabolic Activation: NONE, Method: STANDARD PLATE inactive; negative | Test System: AMES SALMONELLA TYPHIMURIUM, Strain/Indicator: TA1537, Metabolic Activation: RAT, LIVER, S-9, AROCLOR 1254, Method: PREINCUBATION inactive; negative | Test System: AMES SALMONELLA TYPHIMURIUM, Strain/Indicator: TA1537, Metabolic Activation: RAT, LIVER, S-9, AROCLOR 1254, Method: STANDARD PLATE inactive; negative | Test System: AMES SALMONELLA TYPHIMURIUM, Strain/Indicator: TA1537, Metabolic Activation: RAT, LIVER, S-9, Method: PREINCUBATION inactive; negative | Test System: AMES SALMONELLA TYPHIMURIUM, Strain/Indicator: TA1537, Metabolic Activation: RAT, LIVER, S-9, Method: STANDARD PLATE inactive; negative | Test System: AMES SALMONELLA TYPHIMURIUM, Strain/Indicator: TA1538, Metabolic Activation: HAMSTER, LIVER, S-9, AROCLOR 1254, Method: PREINCUBATION inactive; negative | Test System: AMES SALMONELLA TYPHIMURIUM, Strain/Indicator: TA1538, Metabolic Activation: HAMSTER, LIVER, S-9, AROCLOR 1254, Method: STANDARD PLATE inactive; negative | Test System: AMES SALMONELLA TYPHIMURIUM, Strain/Indicator: TA1538, Metabolic Activation: HAMSTER, LIVER, S-9, Method: PREINCUBATION inactive; negative | Test System: AMES SALMONELLA TYPHIMURIUM, Strain/Indicator: TA1538, Metabolic Activation: HAMSTER, LIVER, S-9, Method: STANDARD PLATE inactive; negative | Test System: AMES SALMONELLA TYPHIMURIUM, Strain/Indicator: TA1538, Metabolic Activation: MOUSE, LIVER, S-9, AROCLOR 1254, Method: PREINCUBATION inactive; negative | Test System: AMES SALMONELLA TYPHIMURIUM, Strain/Indicator: TA1538, Metabolic Activation: MOUSE, LIVER, S-9, AROCLOR 1254, Method: STANDARD PLATE inactive; negative | Test System: AMES SALMONELLA TYPHIMURIUM, Strain/Indicator: TA1538, Metabolic Activation: MOUSE, LIVER, S-9, Method: PREINCUBATION inactive; negative | Test System: AMES SALMONELLA TYPHIMURIUM, Strain/Indicator: TA1538, Metabolic Activation: MOUSE, LIVER, S-9, Method: STANDARD PLATE inactive; negative | Test System: AMES SALMONELLA TYPHIMURIUM, Strain/Indicator: TA1538, Metabolic Activation: NONE, Method: PREINCUBATION inactive; negative | Test System: AMES SALMONELLA TYPHIMURIUM, Strain/Indicator: TA1538, Metabolic Activation: NONE, Method: STANDARD PLATE inactive; negative | Test System: AMES SALMONELLA TYPHIMURIUM, Strain/Indicator: TA1538, Metabolic Activation: RAT, LIVER, S-9, AROCLOR 1254, Method: PREINCUBATION inactive; negative | Test System: AMES SALMONELLA TYPHIMURIUM, Strain/Indicator: TA1538, Metabolic Activation: RAT, LIVER, S-9, AROCLOR 1254, Method: STANDARD PLATE inactive; negative | Test System: AMES SALMONELLA TYPHIMURIUM, Strain/Indicator: TA1538, Metabolic Activation: RAT, LIVER, S-9, Method: PREINCUBATION inactive; negative | Test System: AMES SALMONELLA TYPHIMURIUM, Strain/Indicator: TA1538, Metabolic Activation: RAT, LIVER, S-9, Method: STANDARD PLATE inactive; negative
